{"source": "patent US10889609B2", "about": "“Mannitol-based amphipathic compound and use thereof” (Industry-University Cooperation Foundation Hanyang …, priority 2015, dated 2021)", "key": {"[1]": {"biological_target": "T1, human β2 adrenergic receptor (β2AR) (Homo sapiens, UniProt P07550)", "T1 construct": "made in house", "T1 sequence (P07550 whole entry)": "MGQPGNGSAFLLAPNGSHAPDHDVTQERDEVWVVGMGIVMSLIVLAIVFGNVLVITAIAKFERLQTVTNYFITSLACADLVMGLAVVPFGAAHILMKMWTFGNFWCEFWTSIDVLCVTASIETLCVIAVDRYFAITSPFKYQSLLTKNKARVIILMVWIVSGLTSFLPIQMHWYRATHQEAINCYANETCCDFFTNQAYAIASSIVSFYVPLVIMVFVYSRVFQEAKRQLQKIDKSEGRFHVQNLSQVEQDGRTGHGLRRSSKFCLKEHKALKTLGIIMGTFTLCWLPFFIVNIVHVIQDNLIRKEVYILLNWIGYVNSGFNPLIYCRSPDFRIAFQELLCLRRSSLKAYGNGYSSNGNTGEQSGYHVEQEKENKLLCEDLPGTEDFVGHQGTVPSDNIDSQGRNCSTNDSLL", "experiment": "mBBr-β2AR bimane spectra at detergent concentration below CMC", "format": "biochemical", "conditions": "detergent diluted to a fiftieth of its CMC, compared to DDM, FIG. 21", "method": "Experiments for comparing the structural changes of the β2AR protein by the MNAs and DDM at a concentration below CMCs of the amphipathic molecules were performed.\nSpecifically, 0.5 μL of a non-ligand mBBr-labeled receptor dissolved at 50 μNI in a 20×CMC concentration of MNA-5, MNA-6, or MNA-7 was diluted with 500 μL of an NH buffer (20 mM HEPES pH 7.5, and 100 mM NaCl). The proteins were cultured for 30 minutes, and the bimane spectra thereof were measured. The receptor dissolved in 0.1% DDM was diluted with the NH buffer, and used as the control. Data was presented as an average of three separate experiments performed in triplicate."}, "[2]": {"experiment": "Hydrodynamic radius and size distribution of micelles by dynamic light scattering (DLS)", "format": "physicochemical", "text": "A method of measuring the radius of the micelle is not particularly limited, but the methods widely known in the related art may be used. For example, the radius of the micelle may be measured using a dynamic light scattering (DLS) experiment.\n(§1) To determine characteristics of the MNAs of Preparative Example 1 to 10 synthesized according to the synthesis method of Example 1, the molecular weights (M.W.) and critical micellar concentrations (CMCs) of the MNAs and the hydrodynamic radii (Rh) of the formed micelles were measured.\n(§2) Specifically, the critical micellar concentration (CMC) was measured using a hydrophobic fluorescence stain (diphenylhexatriene (DPH)), and the hydrodynamic radii (Rh) of the micelles formed by each of the preparations were measured by a dynamic light scattering (DLS) experiment. The measured results were compared to those of DDM that is a conventional amphipathic molecule (a detergent), and are listed in Table 1.\nMeanwhile, the size distributions of the micelles formed by the MNAs were measured using DLS, and the measurement results are shown in FIG. 17. The MNAs were used at a content of 1.0% by weight."}, "[3]": {"experiment": "Critical micellar concentration (CMC) by hydrophobic fluorescence stain diphenylhexatriene (DPH)", "format": "physicochemical", "conditions": "aqueous solution", "text": "A method of measuring the CMC is not particularly limited, but the methods widely known in the related art may be used. For example, the CMC may be measured by a fluorescence detection method using diphenylhexatriene (DPH).\nas §1, §2"}, "[4]": {"biological_target": "T1, human β2 adrenergic receptor (β2AR)", "experiment": "Bimane fluorescence spectra of mBBr-β2AR with ISO or ISO plus G-protein", "format": "biochemical", "conditions": "combination of ISO and G-protein, FIG. 20", "method": "Experiments for measuring the structural stabilities of a human β2 adrenergic receptor (β2AR), a G-protein-coupled receptor (GPCR), in the MNAs were performed.\nExperiments for measuring the structural changes and structural stabilities of mBBr-β2AR by the MNAs (MNA-5, MNA-6, MNA-7) and DDM according to the presence or absence of a full agonist (isopreoterenol (ISO)) or a combination of ISO and G-protein were performed.\nSpecifically, β2AR dissolved in 0.1% DDM was purified according to the method disclosed in the article by D. M. Rosenbaum et al. (Science 2007, 318, 1266-1273) and then concentrated to a concentration of approximately 1 mg/mL. […] The mBBr-labeled β2AR was cultured for 30 minutes, and the mBBr spectra thereof were measured and compared to the spectra of the mBBr-labeled receptor dissolved in 0.1% DDM. The fluorescence of the mBBr-labeled β2AR was measured at 370 nm and thus determined by emission from 430 to 510 nm at 1-nm increments with 1 nm s^−1 integration using a Spex FluoroMax-3 spectrofluorometer (Jobin Yvon Inc.) which was run in a photon counting mode through a 4-nm emission bandwidth pass. mBBr dissolved in DDM was used as the positive control. […]"}, "[5]": {"biological_target": "T2, boron transporter (Bor1) (Arabidopsis thaliana, UniProt Q8VYR7)", "T2 construct": "made in house; host or cells: Saccharomyces cerevisiae FGY217", "T2 sequence (Q8VYR7 whole entry)": "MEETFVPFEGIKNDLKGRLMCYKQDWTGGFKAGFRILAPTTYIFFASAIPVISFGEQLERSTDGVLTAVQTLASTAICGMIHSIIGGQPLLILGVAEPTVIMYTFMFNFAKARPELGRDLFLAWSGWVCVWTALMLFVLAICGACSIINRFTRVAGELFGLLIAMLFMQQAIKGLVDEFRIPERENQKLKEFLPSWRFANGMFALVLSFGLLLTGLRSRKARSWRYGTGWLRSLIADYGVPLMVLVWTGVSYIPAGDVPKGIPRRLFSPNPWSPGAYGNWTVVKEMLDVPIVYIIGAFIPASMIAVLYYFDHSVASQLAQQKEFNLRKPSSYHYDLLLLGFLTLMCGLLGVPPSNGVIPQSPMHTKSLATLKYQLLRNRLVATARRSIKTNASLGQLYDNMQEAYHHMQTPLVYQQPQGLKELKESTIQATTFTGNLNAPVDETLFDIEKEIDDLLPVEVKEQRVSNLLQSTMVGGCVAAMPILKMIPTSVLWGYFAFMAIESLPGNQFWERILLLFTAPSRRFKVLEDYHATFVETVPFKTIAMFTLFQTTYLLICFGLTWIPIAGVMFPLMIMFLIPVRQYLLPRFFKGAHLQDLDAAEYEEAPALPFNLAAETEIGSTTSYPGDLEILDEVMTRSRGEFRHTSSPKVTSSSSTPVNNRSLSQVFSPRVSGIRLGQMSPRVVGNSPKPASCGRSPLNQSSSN", "experiment": "Structural stability and extraction of Bor1 by heat fluorescence size exclusion chromatography (hFSEC)", "method": "An experiment for measuring the structural stability of a boron transporter (Bor1) by the MNAs was performed. The structural stability of Bor1 was measured using heat fluorescence size exclusion chromatography (hFSEC), and the concentrations of the MNAs and DDM were CMC plus 0.04% by weight. Specifically, Bor1 of Arabidopsis thaliana was expressed in Saccharomyces cerevisiae FGY217 cells as a fusion protein having a C-terminal GFP-His tag. The cells were grown in a -URA medium supplemented with 0.1% glucose. Expression of proteins was induced by adding 2% galactose, and the cells were then cultured at 20° C. for 18 hours. Here, the cell culture was carried out according to the method described in the article by D. Drew et al. (Nat. Protoc. 2008, 3, 784-798.). The cells were collected to prepare membranes, and the cell collection was carried out according to the method described in the article by J. Leung et al. (Protein Expr. Purif. 2010, 72, 139-146.). The membranes including the Bor1-GFP fusion protein were diluted with phosphate-buffered saline (PBS, pH 7.4) until the final concentration of the total proteins reached 2.8 mg/mL. In this case, 1% by weight of DDM or 1% by weight of MNA (MNA-1, MNA-2, MNA-3, MNA-4, MNA-5, MNA-6, or MNA-7) was added to the PBS. Samples were incubated for an hour while shaking at 4° C., and insoluble materials were then removed by centrifugation at 14,000 g and 4° C. for an hour. The supernatant including the dissolved protein samples was heated at 40° C. for 10 minutes, and the strongly aggregated proteins were removed by centrifugation at 14,000 g and 4° C. for 10 minutes. 200 μL of the supernatant of the samples was injected into a Superose 6 10/300 column equilibrated with 20 mM Tris (pH 7.5), 150 mM NaCl, and 0.03% DDM. Each of elution fractions was collected in 200 μL fractions at a retention volume of 6.4 mL (e.g., 6.4 mL after elusion) in a clear bottom 96-well plate. The GFP fluorescence of each of the fractions was measured at an excitation wavelength of 470 nm and an emission wavelength of 512 nm."}}, "note": "Where “and” joins values, the source holds several entries; their conditions need not be identical. Equal values may be shown once."}
{"smiles": "CCCCCCCCCCCCO[C@H]([C@@H](OCCCCCCCCCCCC)[C@H](CO[C@@H]1OC(CO)[C@@H](O)C(O)C1O)O[C@@H]1OC(CO)[C@@H](O)C(O)C1O)[C@H](CO[C@@H]1OC(CO)[C@@H](O)C(O)C1O)O[C@@H]1OC(CO)[C@@H](O)C(O)C1O", "note": "(stereo partly drawn) [MNA-5]", "values": [{"measurement": "stability of β2AR", "setting": "[1]", "result": "secured for a prolonged period of time"}, {"measurement": "Rh (nm), hydrodynamic radius of micelles", "setting": "[2]", "result": "3.0 nm and 3.0 ± 0.01 nm"}, {"measurement": "CMC", "setting": "[3]", "result": "~0.004", "unit": "mM"}, {"measurement": "bimane fluorescence spectra of mBBr-β2AR", "setting": "[4]", "result": "slightly higher fluorescence intensity than DDM"}, {"measurement": "Bor1 extraction efficiency", "setting": "[5]; 1% by weight detergent, membranes with Bor1-GFP", "result": 60, "unit": "%"}, {"measurement": "level of Bor1 protein aggregation after heat treatment", "setting": "[5]; hFSEC, 40° C. for 10 minutes, FIG. 18", "result": "lower level of Bor1 aggregation than DDM"}]}
